Experimental data published in patent publication US8192962B2, “Processes for detecting toxic substances” (Daikin Industries, Ltd., priority 2001, dated 2012).

Test system: Unknown protein yeast genes
Assay: DNA chip mRNA expression in yeast, unknown protein yeast genes (Table 1)
Assay type: cell-based, Saccharomyces cerevisiae S288C
Method in brief: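 Measured as treated-to-untreated fluorescence ratio on a full-genome yeast DNA chip. Cells (S288C, YPD, 25° C.) were exposed in log phase for two hours to one chemical, dosed to curb growth without killing.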

Measured: The level of expressed mRNA in the presence of chemical substance/The level of expressed mRNA in the absence of chemical substance

Cl[C@H]1[C@H](Cl)[C@@H](Cl)[C@@H](Cl)[C@H](Cl)[C@H]1Cl [(7), γ-hexachlorocyclohexane]
4.7: yeast gene YGL121C
2.4: yeast gene YNL115C, incubated two hours with chemical substance | yeast gene YOL150C | yeast gene YPL196W, incubated two hours with chemical substance
0.8: yeast gene YIL041W, incubated two hours with chemical substance
0.7: yeast gene YAL053W, incubated two hours with chemical substance | yeast gene YKL086W, incubated two hours with chemical substance | yeast gene YML117W, incubated two hours with chemical substance
3.6: yeast gene YJL161W, incubated two hours with chemical substance
1.1: yeast gene YEL001C, incubated two hours with chemical substance | yeast gene YFL032W, incubated two hours with chemical substance | yeast gene YHR199C, incubated two hours with chemical substance | yeast gene YKL153W, incubated two hours with chemical substance | yeast gene YLR054C, incubated two hours with chemical substance | yeast gene YLR387C, incubated two hours with chemical substance | yeast gene YLR460C | yeast gene YNL074C, incubated two hours with chemical substance | yeast gene YPL222W, incubated two hours with chemical substance
1.8: yeast gene YDL072C, incubated two hours with chemical substance | yeast gene YIL087C, incubated two hours with chemical substance | yeast gene YMR102C, incubated two hours with chemical substance | yeast gene YNR068C, incubated two hours with chemical substance
3.1: yeast gene YOL083W, incubated two hours with chemical substance
0.4: yeast gene YJL082W, incubated two hours with chemical substance
2.5: yeast gene YOL082W, incubated two hours with chemical substance
2.9: yeast gene YGL037C, incubated two hours with chemical substance | yeast gene YJR008W, incubated two hours with chemical substance
5.6: yeast gene YKL151C, incubated two hours with chemical substance
2.7: yeast gene YJL057C, incubated two hours with chemical substance | yeast gene YMR090W
2.3: yeast gene YER175C, incubated two hours with chemical substance
1.9: yeast gene YBL048W | yeast gene YER035W, incubated two hours with chemical substance | yeast gene YER079W, incubated two hours with chemical substance | yeast gene YMR009W, incubated two hours with chemical substance | yeast gene YNL156C, incubated two hours with chemical substance
2.8: yeast gene YOR019W, incubated two hours with chemical substance
3.0: yeast gene YHR138C, incubated two hours with chemical substance
3.2: yeast gene YDL204W, incubated two hours with chemical substance
1.4: yeast gene YER004W, incubated two hours with chemical substance | yeast gene YJL151C, incubated two hours with chemical substance | yeast gene YJL171C, incubated two hours with chemical substance | yeast gene YLR152C, incubated two hours with chemical substance | yeast gene YOL032W, incubated two hours with chemical substance
4.4: yeast gene YPR151C, incubated two hours with chemical substance
3.7: yeast gene YGL053W, incubated two hours with chemical substance | yeast gene YKL071W
4.2: yeast gene YPL087W, incubated two hours with chemical substance
1.0: yeast gene YDL222C, incubated two hours with chemical substance | yeast gene YER106W, incubated two hours with chemical substance | yeast gene YFL006W, incubated two hours with chemical substance | yeast gene YLR194C, incubated two hours with chemical substance | yeast gene YLR324W, incubated two hours with chemical substance | yeast gene YOL036W, incubated two hours with chemical substance
3.3: yeast gene YFL024C
1.7: yeast gene YGL047W, incubated two hours with chemical substance | yeast gene YGR110W | yeast gene YMR180C, incubated two hours with chemical substance | yeast gene YNL305C, incubated two hours with chemical substance
1.3: yeast gene YDR330W, incubated two hours with chemical substance | yeast gene YGL199C, incubated two hours with chemical substance | yeast gene YGR130C, incubated two hours with chemical substance | yeast gene YKR091W, incubated two hours with chemical substance | yeast gene YMR295C, incubated two hours with chemical substance | yeast gene YOL047C, incubated two hours with chemical substance | yeast gene YOL131W, incubated two hours with chemical substance
0.9: yeast gene YJR054W, incubated two hours with chemical substance | yeast gene YNL044W, incubated two hours with chemical substance | yeast gene YOR197W, incubated two hours with chemical substance
1.5: yeast gene YDR511W, incubated two hours with chemical substance | yeast gene YER163C, incubated two hours with chemical substance | yeast gene YFL010C, incubated two hours with chemical substance | yeast gene YGR101W, incubated two hours with chemical substance | yeast gene YMR097C, incubated two hours with chemical substance
2.1: yeast gene YBL107C | yeast gene YKL195W, incubated two hours with chemical substance
1.6: yeast gene YJL066C, incubated two hours with chemical substance | yeast gene YLR149C, incubated two hours with chemical substance | yeast gene YMR184W, incubated two hours with chemical substance | yeast gene YNL092W, incubated two hours with chemical substance | yeast gene YOL117W, incubated two hours with chemical substance
1.2: yeast gene YDR545W, incubated two hours with chemical substance | yeast gene YER158C, incubated two hours with chemical substance | yeast gene YGR221C, incubated two hours with chemical substance | yeast gene YIL023C, incubated two hours with chemical substance | yeast gene YJL152W, incubated two hours with chemical substance | yeast gene YLR350W, incubated two hours with chemical substance | yeast gene YMR067C, incubated two hours with chemical substance | yeast gene YMR095C, incubated two hours with chemical substance | yeast gene YMR107W, incubated two hours with chemical substance | yeast gene YNL234W, incubated two hours with chemical substance | yeast gene YNL281W, incubated two hours with chemical substance | yeast gene YPL206C, incubated two hours with chemical substance | yeast gene YPR023C, incubated two hours with chemical substance
2.0: yeast gene YDR411C, incubated two hours with chemical substance | yeast gene YGR154C, incubated two hours with chemical substance | yeast gene YMR191W, incubated two hours with chemical substance | yeast gene YMR316W, incubated two hours with chemical substance | yeast gene YOL071W, incubated two hours with chemical substance | yeast gene YOL162W, incubated two hours with chemical substance
